What was measured:
Type in all cases: cell-based
[1] = system: Serratia marcescens (SM) ATCC 6538; assay: In vitro biofilm assay; details: for Log εPLL (log CFU recovered per εPLL lens): 10^7 CFU/mL, 2 hours adhesion, 24 hours biofilm growth; for Log Reduction: versus control lens
Procedure: (§1) Lenses at the 0 hour time point and from the 168 hour time point were used to test whether they supported biofilm formation. The lenses were rinsed for 5 seconds in 2.5 mL of sterile PBS then transferred into an individual well of a 24-well plate containing 1.0 mL of bacterial inoculum at approximately 10^7CFU/mL, prepared as described in Example 5. The plates were incubated for 2 hours on a 37° C. with gentle rotary agitation. The remaining inoculum, i.e. not incubated with lenses, was also incubated on the shaker for the duration of each experiment to determine the cfu/mL of the inoculum at t=2 hr and t=24 hr. After 2 hours incubation each lens was washed using the bacterial wash step described in Example 5 then placed on an insert of a 24-well plate for biofilm formation as described below. The inoculum concentration (at t=0 hr and 2 hr) was confirmed by serial dilution, plating onto TSA, incubating overnight at 37° C. and colony counting.
(§2) Custom-made mushroom-shaped stainless steel inserts, depicted in FIG. 1, were placed in each well of a 24-well plate. The cap portion of each insert has a diameter of approximately 14 mm and a curvature to match the posterior surface of a contact lens. The height of each insert is approximately 11 mm. One mL of sterile media/diluent was added to each well. Each preloaded, washed lens (as described above) was placed on the top (cap portion) of an insert, convex side up. The dimensions of the inserts and the volume of the media are such that the periphery of the placed lens is in contact with the media/diluent and the center portion of the lens is at the liquid/air interface. Plates were loosely sealed to prevent evaporation, and incubated for 24 hours at 37° C., with rotary agitation. After incubation, each lens was subjected to the bacterial wash step as described in Example 5. Bacteria were recovered from the washed lenses and log kill calculated as described above in Example 5. Each t-24 hr inoculum concentration was confirmed as described above for t=0 and t=2 hr time points.

[2] = system: Pseudomonas aeruginosa (PA) ATCC 9027; assay: In vitro biofilm assay; details: for Log εPLL (log CFU recovered per εPLL lens): 10^7 CFU/mL, 2 hours adhesion, 24 hours biofilm growth; for Log Reduction: versus control lens
Procedure: as §1, §2

[3] = system: Serratia marcescens (SM) ATCC 6538; assay: In vitro bioactivity assay; details: for log kill of SM: ionic silicone hydrogel contact lens with about 10 μg PQ-1 and/or about 200 μg εPLL, 24 hour incubation, 10^7 inoculum; for log kill εPLL: Formulation F lens autoclaved in 500 ppm εPLL in PBS
Procedure: (§3) Cultures were prepared from growing a single colony of each of the bacterial species shown in Table 3 below in 50 ml. trypticase soy broth (TSB) overnight at 37° C. on a rotary shaker. 1 ml of each culture was centrifuged, and the bacterial pellet resuspended in 1.0 ml of the diluent shown in Table 3, where PBST is 19 mM PBS at pH 7.3 (0.83 wt. % NaCl, 0.03 wt. % sodium phosphate monobasic, and 0.24% sodium phosphate dibasic) with 0.05% Tween. For each bacterial species, a suspension of approximately 10^8CFU/mL was prepared by diluting the bacterial suspension to achieve the optical density indicated in Table 3.
(§4) Each suspension was further diluted to approximately 10^4CFU/mL (low inoculum) or 10^7CFU/mL (high inoculum) using the above diluents to make the bacterial inoculums for testing bioactivity of lenses.
(§5) Each lens was rinsed in 2.5 ml sterile PBS for a few seconds, and transferred into an individual well of a 24-well plate containing 1.0 ml of bacteria inoculum. The plates were incubated at 37° C. with gentle shaking. The original inoculums were incubated for the duration of the experiment to confirm the concentrations at each sample recovery time point. At the time point tested, each lens was removed from its well and transferred to a well of a 12-well plate containing 2.5 mL of sterile PBST. The plate was gently swirled gently for about 30 seconds. This step was repeated once for each lens. Such 2× wash step is referred to herein as the bacterial wash step.
(§6) Each washed lens was placed in a microcentrifuge tube containing 1 ml of Dey-Engley (DE) neutralizing broth and adhered bacteria were removed by a combination of sonication for about 2 minutes and vortexing for about 10 minutes. Serial dilutions were made for each recovered cell suspension using DE neutralizing broth and suitable dilutions were plated onto TSA. Plates were incubated overnight at 37° C. and CFUs were counted.
(§7) The CFU for each plate was multiplied by the dilution factor (DF) as well as the plating dilution factor (PDF). The total CFUs recovered for a given sample were then converted to the log 10. To calculate the log kill of an antimicrobial lens, the log of CFU/lens of the antimicrobial lens is subtracted from that of the control lens. For example, if the mean log 10 value of an antimicrobial lens is 1.05 and the mean log 10 value of an otherwise identical control lens lacking the active antimicrobial agent is 5.52, the log kill is 5.52−1.05=4.47.

[4] = system: Staphylococcus aureus (SA) ATCC 13880; assay: In vitro bioactivity assay; details: for log kill of SA: ionic silicone hydrogel contact lens with about 10 μg PQ-1 and/or about 200 μg εPLL, 24 hour incubation, 10^7 inoculum; for log kill εPLL: Formulation F lens autoclaved in 500 ppm εPLL in PBS
Procedure: as §3, §4, §5, §6, §7

[5] = system: Pseudomonas aeruginosa (PA) ATCC 9027; assay: In vitro bioactivity assay; details: for log kill εPLL: Formulation F lens autoclaved in 500 ppm εPLL in PBS
Procedure: as §3, §4, §5, §6, §7

[6] = system: Staphylococcus aureus (SA) ATCC 13880; assay: In vitro biofilm assay; details: for Log εPLL (log CFU recovered per εPLL lens): 10^7 CFU/mL, 2 hours adhesion, 24 hours biofilm growth; for Log Reduction: versus control lens
Procedure: as §1, §2

[7] = lenses packaged in PBS containing 30 μg/ml PQ-1
[8] = SM, Formulation F lenses without εPLL, 72 hours in PBS plus PQ-1, high inoculum (10^7), 24-hour incubation
[9] = SA, Formulation F lenses without εPLL, 72 hours in PBS plus PQ-1, high inoculum (10^7), 24-hour incubation
[10] = Formulation F lenses without εPLL, 72 hours in PBS plus PQ-1, high inoculum (10^7), 24-hour incubation

Substance: polyquarternium-1 [PQ-1]
- antimicrobial activity in biofilm assay [1, 7]: lack of antimicrobial activity
- antimicrobial activity in biofilm assay [2, 7]: lack of antimicrobial activity
- log kill 10 μ/ml PQ-1 ([3]; SM, 24 hr, Formulation F lens without εPLL): 0.55
- log kill at 10 μg/ml PQ-1 [3, 8]: −0.55
- log kill at 30 μg/ml PQ-1 [3, 8]: 0.55
- log kill at 100 μg/ml PQ-1 [3, 8]: 0.31
- log kill of SM [3]: no significant activity
- log kill 10 μ/ml PQ-1 ([4]; SA, 24 hr, Formulation F lens without εPLL): −0.74
- log kill at 10 μg/ml PQ-1 [4, 9]: −0.54
- log kill at 30 μg/ml PQ-1 [4, 9]: 1.47
- log kill at 100 μg/ml PQ-1 [4, 9]: 3.04
- log kill of SA [4]: no significant activity
- log kill 10 μ/ml PQ-1 ([5]; 24 hr, Formulation F lens without εPLL): −0.23
- log kill at 10 μg/ml PQ-1 [5, 10]: −0.23
- log kill at 30 μg/ml PQ-1 [5, 10]: 0.16
- log kill at 100 μg/ml PQ-1 [5, 10]: 3.43

Substance: ε-polylysine [εPLL]
- Log εPLL (log CFU recovered per εPLL lens) ([1]; 0 hr wash lenses): 1.0
- Log Reduction ([1]; 0 hr wash lenses): 3.5
- Log εPLL (log CFU recovered per εPLL lens) ([1]; 168 hr wash lenses): 3.8
- Log Reduction ([1]; 168 hr wash lenses): 1.7
- Log εPLL (log CFU recovered per εPLL lens) ([6]; 0 hr wash lenses): 0.8
- Log Reduction ([6]; 0 hr wash lenses): 3.7
- Log εPLL (log CFU recovered per εPLL lens) ([6]; 168 hr wash lenses): 3.1
- Log Reduction ([6]; 168 hr wash lenses): 2.4
- Log εPLL (log CFU recovered per εPLL lens) ([2]; 0 hr wash lenses): 0.9
- Log Reduction ([2]; 0 hr wash lenses): 5.0
- Log εPLL (log CFU recovered per εPLL lens) ([2]; 168 hr wash lenses): 0.6
- Log Reduction ([2]; 168 hr wash lenses): 4.9
- log kill εPLL ([3]; SM, 2 hr): 0.19
- log kill εPLL ([3]; SM, 6 hr): 0.74
- log kill εPLL ([3]; SM, 24 hr): 1.63
- log kill of SM [3]: ~1.5 log
- log kill εPLL ([4]; SA, 2 hr): −0.06
- log kill εPLL ([4]; SA, 6 hr): 0.37
- log kill εPLL ([4]; SA, 24 hr): 1.85
- log kill of SA [4]: ~2 log
- log kill εPLL ([5]; 2 hr): 2.63
- log kill εPLL ([5]; 6 hr): 4.04
- log kill εPLL ([5]; 24 hr): ≧4.04

From US20140178327A1, “Antimicrobial Ophthalmic Devices” (CooperVision International Holding Company, LP, priority 2012, published 2014)
